According to PubChem BioAssay (NCI):
“And” between values parts separate entries of the source, which are not always exact repeats. Equal values may be shown once.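 In this assay, cells in 96-well plates receive the compound at five concentrations for 48 hours. Endpoints are linearly interpolated between the surrounding concentrations. The concentration for 50% growth inhibition is given as GI50. TGI: total growth inhibition.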 Where a SMILES comes first, the peptide text is derived from it. [ ]: non-standard residue; d: D form. The star is where a group is joined. ξ: configuration not given here. NMeF = CN[C@@H](Cc1ccccc1)C(=O)O; NMeV = CN[C@H](C(=O)O)C(C)C; ξNMeN = CNC(CC(N)=O)C(=O)O; NMeA = CN[C@@H](C)C(=O)O; ξNMeV = CNC(C(=O)O)C(C)C; Boc = CC(C)(C)OC(=O)*

Key:
Assay in all cases: NCI anticancer screen, dose series, 48 h
XF 498 CNS = system: XF 498 CNS
RXF 393 renal = system: RXF 393 renal
SNB-19 CNS = system: SNB-19 CNS
SK-MEL-5 melanoma = system: SK-MEL-5 melanoma
SNB-75 CNS = system: SNB-75 CNS
SK-OV-3 ovarian = system: SK-OV-3 ovarian
SW-620 colon = system: SW-620 colon
M14 melanoma = system: M14 melanoma
ACHN renal = system: ACHN renal
SK-MEL-28 melanoma = system: SK-MEL-28 melanoma
SF-295 CNS = system: SF-295 CNS
CAKI-1 renal = system: CAKI-1 renal
U251 CNS = system: U251 CNS
HOP-62 NSCLC = system: HOP-62 NSCLC
MOLT-4 leukemia = system: MOLT-4 leukemia
COLO 205 colon = system: COLO 205 colon
UACC-257 melanoma = system: UACC-257 melanoma
NCI-H460 lung = system: NCI-H460 lung
HOP-18 NSCLC = system: HOP-18 NSCLC
OVCAR-4 ovarian = system: OVCAR-4 ovarian
786-0 renal = system: 786-0 renal
K-562 leukemia = system: K-562 leukemia
NCI-H23 lung = system: NCI-H23 lung
LOX IMVI melanoma = system: LOX IMVI melanoma
HCC-2998 colon = system: HCC-2998 colon
OVCAR-8 ovarian = system: OVCAR-8 ovarian
SF-268 CNS = system: SF-268 CNS
HL-60(TB) leukemia = system: HL-60(TB) leukemia
HCT-15 colon = system: HCT-15 colon
M19-MEL melanoma = system: M19-MEL melanoma
MALME-3M melanoma = system: MALME-3M melanoma
SK-MEL-2 melanoma = system: SK-MEL-2 melanoma
NCI-H226 lung = system: NCI-H226 lung
EKVX NSCLC = system: EKVX NSCLC
DLD-1 colon = system: DLD-1 colon
HT29 colon = system: HT29 colon
KM20L2 colon = system: KM20L2 colon
OVCAR-5 ovarian = system: OVCAR-5 ovarian
A549 NSCLC = system: A549 NSCLC
SF-539 CNS = system: SF-539 CNS
UO-31 renal = system: UO-31 renal
TK-10 renal = system: TK-10 renal
SN12C renal = system: SN12C renal
KM12 colon = system: KM12 colon
DMS 273 small cell lung = system: DMS 273 small cell lung
IGROV1 ovarian = system: IGROV1 ovarian
HCT-116 colon = system: HCT-116 colon
HOP-92 NSCLC = system: HOP-92 NSCLC
RPMI-8226 leukemia = system: RPMI-8226 leukemia
LXFL 529 NSCLC = system: LXFL 529 NSCLC
OVCAR-3 ovarian = system: OVCAR-3 ovarian
UACC-62 melanoma = system: UACC-62 melanoma
A498 renal = system: A498 renal
MDA-N = system: MDA-N
SNB-78 CNS = system: SNB-78 CNS
DU-145 prostate = system: DU-145 prostate
MCF7 breast = system: MCF7 breast
NCI/ADR-RES ovarian = system: NCI/ADR-RES ovarian
NCI-H522 lung = system: NCI-H522 lung
BT-549 breast = system: BT-549 breast
MDA-MB-435 = system: MDA-MB-435
T-47D breast = system: T-47D breast
CCRF-CEM leukemia = system: CCRF-CEM leukemia
SR leukemia = system: SR leukemia
PC-3 prostate = system: PC-3 prostate
MDA-MB-231 breast = system: MDA-MB-231 breast
DMS 114 small cell lung = system: DMS 114 small cell lung

COC1O[C@@H]2COC(C)(C)O[C@@H]2C(=O)N1Nc1ccc([N+](=O)[O-])cc1 (some centres undefined) showed a TGI (XF 498 CNS) of over 100 µM, a TGI (RXF 393 renal) of over 100 µM and a TGI (SNB-19 CNS) of over 100 µM. For the same compound, the TGI (SK-MEL-5 melanoma) was over 100 µM, the TGI (SNB-75 CNS) was over 100 µM and the TGI (SK-OV-3 ovarian) was over 100 µM. For the same compound, the TGI (SW-620 colon) was 72.9 µM, the TGI (M14 melanoma) was over 100 µM and the TGI (ACHN renal) was over 100 µM. It also gave a TGI (SK-MEL-28 melanoma) of over 100 µM, a TGI (SF-295 CNS) of over 100 µM and a TGI (CAKI-1 renal) of over 100 µM. It also gave a TGI (U251 CNS) of over 100 µM, a TGI (HOP-62 NSCLC) of over 100 µM and a TGI (MOLT-4 leukemia) of over 100 µM. The TGI (COLO 205 colon) was over 100 µM, the TGI (UACC-257 melanoma) was over 100 µM and the TGI (NCI-H460 lung) was over 100 µM. The TGI (HOP-18 NSCLC) was over 100 µM, the TGI (OVCAR-4 ovarian) was over 100 µM and the TGI (786-0 renal) was over 100 µM. It also gave a TGI (K-562 leukemia) of over 100 µM, a TGI (NCI-H23 lung) of over 100 µM and a TGI (LOX IMVI melanoma) of 95.5 µM. For the same compound, the TGI (HCC-2998 colon) was over 100 µM, the TGI (OVCAR-8 ovarian) was over 100 µM and the TGI (SF-268 CNS) was over 100 µM. For the same compound, the TGI (HL-60(TB) leukemia) was over 100 µM, the TGI (HCT-15 colon) was over 100 µM and the TGI (M19-MEL melanoma) was over 100 µM. The TGI (MALME-3M melanoma) was over 100 µM, the TGI (SK-MEL-2 melanoma) was over 100 µM and the TGI (NCI-H226 lung) was over 100 µM. The TGI (EKVX NSCLC) was over 100 µM, the TGI (DLD-1 colon) was over 100 µM and the TGI (HT29 colon) was over 100 µM. It also gave a TGI (KM20L2 colon) of over 100 µM, a TGI (OVCAR-5 ovarian) of over 100 µM and a TGI (A549 NSCLC) of over 100 µM. It also gave a TGI (SF-539 CNS) of over 100 µM, a TGI (UO-31 renal) of over 100 µM and a TGI (TK-10 renal) of over 100 µM. The TGI (SN12C renal) was over 100 µM, the TGI (KM12 colon) was over 100 µM and the TGI (DMS 273 small cell lung) was over 100 µM. The TGI (IGROV1 ovarian) was over 100 µM, the TGI (HCT-116 colon) was over 100 µM and the TGI (HOP-92 NSCLC) was over 100 µM. It also gave a TGI (RPMI-8226 leukemia) of 45.4 µM, a TGI (LXFL 529 NSCLC) of over 100 µM and a TGI (OVCAR-3 ovarian) of over 100 µM. For the same compound, the TGI (UACC-62 melanoma) was over 100 µM and the TGI (A498 renal) was over 100 µM.

COC(=O)[C@H](C)N(C)C(=O)C(CC(N)=O)N(C)C(=O)[C@H](Cc1ccccc1)N(C)C(=O)[C@@H]1CCCN1C(=O)[C@H](C(C)C)N(C)C(=O)C(C(C)C)N(C)C(=O)[C@@H](NC(=O)OC(C)(C)C)C(C)C (some centres undefined) (Boc-V[ξNMeV][NMeV]P[NMeF][ξNMeN][NMeA]-OMe) was tested, and the TGI (XF 498 CNS) was over 75 µM, the TGI (MDA-N) was over 50 µM and the TGI (RXF 393 renal) was 50 µM. For the same compound, the GI50 (SNB-19 CNS) was over 75 µM, the TGI (SNB-19 CNS) was over 75 µM and the GI50 (SK-MEL-5 melanoma) was 35.2 µM. It also gave a TGI (SK-MEL-5 melanoma) of over 75 µM, a TGI (SNB-75 CNS) of over 75 µM and a GI50 (SK-OV-3 ovarian) of over 75 µM. The TGI (SK-OV-3 ovarian) was over 75 µM, the GI50 (SW-620 colon) was 34.7 µM and the TGI (SW-620 colon) was over 75 µM. It also gave a GI50 (M14 melanoma) of 31.6 µM, a TGI (M14 melanoma) of over 75 µM and a TGI (SNB-78 CNS) of over 75 µM. The GI50 (ACHN renal) was over 75 µM, the TGI (ACHN renal) was over 75 µM and the GI50 (SK-MEL-28 melanoma) was 31.4 µM. It also gave a TGI (SK-MEL-28 melanoma) of over 75 µM, a GI50 (SF-295 CNS) of over 75 µM and a TGI (SF-295 CNS) of over 75 µM. The TGI (DU-145 prostate) was over 50 µM, the GI50 (CAKI-1 renal) was over 75 µM and the TGI (CAKI-1 renal) was over 75 µM. For the same compound, the GI50 (U251 CNS) was 67.1 µM, the TGI (U251 CNS) was over 75 µM and the GI50 (HOP-62 NSCLC) was over 75 µM. For the same compound, the TGI (HOP-62 NSCLC) was over 75 µM, the GI50 (MOLT-4 leukemia) was 17.1 µM and the TGI (MOLT-4 leukemia) was 50 µM and 51.1 µM. The GI50 (COLO 205 colon) was over 75 µM, the TGI (COLO 205 colon) was over 75 µM and the TGI (UACC-257 melanoma) was over 75 µM. It also gave a GI50 (NCI-H460 lung) of 25.4 µM, a TGI (NCI-H460 lung) of over 75 µM and a TGI (MCF7 breast) of over 50 µM. For the same compound, the TGI (NCI/ADR-RES ovarian) was over 50 µM, the TGI (OVCAR-4 ovarian) was over 75 µM and the GI50 (786-0 renal) was over 75 µM. The TGI (786-0 renal) was over 75 µM, the GI50 (K-562 leukemia) was 33.1 µM and the TGI (K-562 leukemia) was over 75 µM. The GI50 (NCI-H522 lung) was 34.8 µM, the TGI (NCI-H522 lung) was over 75 µM and the GI50 (NCI-H23 lung) was 35.6 µM. The TGI (NCI-H23 lung) was over 75 µM, the GI50 (LOX IMVI melanoma) was 26.7 µM and the TGI (LOX IMVI melanoma) was over 75 µM. For the same compound, the GI50 (HCC-2998 colon) was 38.5 µM, the TGI (HCC-2998 colon) was over 75 µM and the TGI (BT-549 breast) was over 50 µM. The TGI (OVCAR-8 ovarian) was over 75 µM, the TGI (MDA-MB-435) was over 50 µM and the TGI (SF-268 CNS) was over 75 µM. The GI50 (HL-60(TB) leukemia) was 16.8 µM, the TGI (HL-60(TB) leukemia) was 35.9 µM and 36.3 µM and the TGI (HCT-15 colon) was over 75 µM. For the same compound, the TGI (M19-MEL melanoma) was 50.9 µM, the TGI (T-47D breast) was over 50 µM and the TGI (MALME-3M melanoma) was over 75 µM. The GI50 (CCRF-CEM leukemia) was 21.8 µM, the TGI (CCRF-CEM leukemia) was 39.3 µM and > 75 µM and the TGI (SR leukemia) was 62.4 µM. The GI50 (SK-MEL-2 melanoma) was 18 µM, the TGI (SK-MEL-2 melanoma) was > 50 µM and 48.8 µM and the TGI (NCI-H226 lung) was over 75 µM. For the same compound, the GI50 (EKVX NSCLC) was over 75 µM, the TGI (EKVX NSCLC) was over 75 µM and the TGI (DLD-1 colon) was over 75 µM. The GI50 (HT29 colon) was 27.2 µM, the TGI (HT29 colon) was over 75 µM and the TGI (PC-3 prostate) was over 50 µM. For the same compound, the TGI (MDA-MB-231 breast) was over 50 µM, the TGI (KM20L2 colon) was over 75 µM and the GI50 (OVCAR-5 ovarian) was over 75 µM. It also gave a TGI (OVCAR-5 ovarian) of over 75 µM, a GI50 (A549 NSCLC) of over 75 µM and a TGI (A549 NSCLC) of over 75 µM. It also gave a GI50 (SF-539 CNS) of over 75 µM, a TGI (SF-539 CNS) of over 75 µM and a GI50 (UO-31 renal) of 40.6 µM. The TGI (UO-31 renal) was over 75 µM, the GI50 (TK-10 renal) was 59.2 µM and the TGI (TK-10 renal) was over 75 µM. The TGI (SN12C renal) was over 75 µM, the TGI (KM12 colon) was 34 µM and the TGI (DMS 273 small cell lung) was over 75 µM. It also gave a GI50 (IGROV1 ovarian) of 36.7 µM, a TGI (IGROV1 ovarian) of over 75 µM and a GI50 (HCT-116 colon) of 28 µM. The TGI (HCT-116 colon) was over 75 µM, the GI50 (HOP-92 NSCLC) was 17.2 µM and the TGI (HOP-92 NSCLC) was 50 µM and 57.4 µM. The TGI (RPMI-8226 leukemia) was over 5 µM, the TGI (LXFL 529 NSCLC) was over 75 µM and the TGI (OVCAR-3 ovarian) was over 75 µM. It also gave a GI50 (UACC-62 melanoma) of 25.8 µM, a TGI (UACC-62 melanoma) of over 75 µM and a GI50 (A498 renal) of 60.1 µM. For the same compound, the TGI (A498 renal) was over 75 µM and the TGI (DMS 114 small cell lung) was 55.6 µM.
